Data on two molecules can be found in patent publication US6767705B2, “Reagents and methods for identifying and modulating expression of genes regulated by retinoids” (The Board of Trustees of the University of Illinois, priority 2000, dated 2004).

Experiment [1] concerns MCF-7 cells. Kind of experiment: Immunocytochemical and immunoblotting analysis of IGFBP-3, HIF2α/EPAS-1 and EPLIN proteins in MCF-7 cells. Conditions: 100 nM RA for 5 days, MCF-7 cells (FIG. 3A, 3B). In kind it is cell-based, human. The protocol:
FIG. 3A is a photomicrograph and FIG. 3B is a photograph of an immunoblot showing induction of IGFBP-3, HIF2α/EPAS-1 and EPLIN proteins in RA-treated cells.
Induction of three genes in this group was tested and confirmed at the protein level, by immunocytochemical assays, shown in FIG. 3A, using rabbit polyclonal antibody against EPLIN (a gift of Dr. David Chang, UCLA), and goat polyclonal antibodies against IGFBP-3 and EPAS-1/HIF-2α (Santa Cruz Biotechnology, Inc., Santa Cruz, Calif.) and standard techniques. Antibody staining was detected using Vectastain kit (Vector Labs, Burlingame, Calif.) according to the manufacturer's instructions.
The EPLIN gene encodes two protein isoforms. EPLINα and EPLINβ, with the larger (β) isoform showing a stronger growth-inhibitory effect. The observed induction of EPLIN gene expression was confirmed by immunocytochemical and immunoblotting assays (results shown in FIGS. 3A and 3B). These assays were performed using rabbit polyclonal antibody against EPLIN (a gift of Dr. David Chang, UCLA) and were carried out by standard techniques. Antibody staining was detected using Vectastain kit (Vector Labs) for immunocytochemistry and horseradish peroxidase-conjugated goat anti-rabbit IgG (Santa Cruz) for immunobloting.
Background: Immunoblotting shows a protein as a band on a membrane.

For experiment [2], the system named is MCF-7 human breast carcinoma cells. Conditions: cited from earlier work.
A further experiment concerns p21. The settings on record: retinoic acid-induced growth inhibition in MCF-7 cells; cited from earlier work.
Experiment [3] deals with MCF-7 cells. As to the kind of experiment: RT-PCR analysis of expression of retinoid-inducible genes in MCF-7 cells. In kind it is cell-based, human. As to the method: FIGS. 2A through 2C show the results of RT-PCR analysis of changes in the expression of retinoid-inducible genes as described in Example 1. The identity of each gene is followed by the NCBI Accession Number (in parentheses). […] The designations “R5” and “R8” correspond to days 5 and 8 after release from 5-day RA treatment, respectively.
RT-PCR analysis was carried out essentially as described (Noonan et al., 1990, Proc. Natl. Acad. Sci. USA 87: 7160-7164), using β-actin as an internal normalization standard.

The test system of experiment [4] is MCF-7 cells. As to the kind of experiment: cDNA microarray hybridization (Human UniGEM V) of RA-treated vs untreated MCF-7 cells. Format: cell-based. The settings on record: 100 nM RA, 5 days. The protocol: To study gene expression changes, poly(A)+ RNA was isolated from untreated MCF-7 cells and from cells treated for 5 days with 100 nM RA. cDNA was prepared from these RNA populations and the cDNA hybridized with a cDNA microarray (Human UniGEM V cDNA microarray, Incyte Genomics, St. Louis, Mo.) that contains >7,000 cDNAs of different human genes and ESTs. cDNA probe synthesis, hybridization with the microarray and signal analyses were conducted by IncyteGenomics as a commercial service.

Experiment [5] relates to MCF-7 cells. As to the kind of experiment: Clonogenic assay (colony formation / plating efficiency) of MCF-7 cells after RA treatment. In kind it is cell-based, human. As to the method: FIGS. 1A and 1B are graphs showing the effects of retinoic acid (RA) on colony formation by MCF-7 cells. In each assay, 1.5×10^5 cells were plated per P100, in the absence or in the presence of RA. For clonogenic assays, cells were trypsinized after treatment, and 2,500 cells were plated per P100 and grown in drug-free media. […] Each point represents the mean and standard deviation for triplicate assays.
Clonogenic assays were performed to analyze the differences in proliferative capacity in MCF-7 cells after treatment with 100 nM RA for varying times. Cells were exposed to 100 nM RA for 1-7 days and tested for their capacity to form colonies after treatment at each time point. […] The decrease was initially rapid (from 100% to 40% plating efficiency after 2 days incubation with RA) and decreased more slowly to a final plating efficiency of about 10% at day 7.

The subject of experiment [6] is xenografts of MCF-10T neo mammary epithelial cells. The settings on record: xenografts in vivo after treatment with fenretinide; cited from earlier work.
Setting [7] is: 100 nM RA, MCF-7 cells (FIG. 2A).

The structures appear in SMILES notation.

Take `CC1=C(/C=C/C(C)=C/C=C/C(C)=C/C(=O)O)C(C)(C)CCC1` [RA, all-trans retinoic acid]: the “expression of IGFBP-3, EPAS-1/HIF2α and EPLIN proteins” value in the experiment on MCF-7 cells [1] is reported as “increased expression of the corresponding proteins”. Moreover, the “continuous exposure required for the growth arrest effect to become apparent” value in experiment [2] (low dose RA (between 10-100 nM), MCF-7 cells) is 4 to 6 days. In addition, in experiment [2] (relatively low doses of RA (between 10-100 nM)), the “growth arrest and cell death in MCF-7 cells” value is recorded as “induce irreversible growth arrest in MCF-7 cells, while producing only a minor reduction in cell numbers caused by cell death”. Besides, the “induction of p21” value with p21 is “does not induce p21”. Besides, in the experiment on MCF-7 cells [3] (setting [7]), the “time course of changes in RNA levels of the 13 genes” value is “many of them increased their expression between days 1 and 4 of RA treatment”; the “time to maximum expression of RNF” value is “maximum expression after just one day of treatment”. Besides, the “RA dose-dependence of gene expression of the 13 genes” value in the experiment with MCF-7 cells [3] (40 hr treatment, lowest dose 10 nM, MCF-7 cells (FIG. 2B)) is given as “almost all of these genes were induced even by the lowest (10 nM) dose”. Moreover, the “induction of 13 upregulated genes by RT-PCR” value in the experiment on MCF-7 cells [3] (RA-treated MCF-7 cells, printed as '5-10 fold or more' (FIGS. 2A, 2B)) is listed as 5-10 fold. Besides, in the experiment on MCF-7 cells [4], the “decrease in balanced differential expression, 20 genes” value is recorded as 1.7-3.0 fold; the “increase in balanced differential expression, 27 genes” value is given as 1.4-2.5 fold; the “maximum decrease in relative hybridization intensity of any gene in the microarray” value is at most 3 fold; the “maximum increase in relative hybridization intensity of any gene in the microarray” value is recorded as at most 2.5 fold. The “plating efficiency, normalized to untreated control” value with MCF-7 cells [5] (100 nM RA, after 2 days incubation, MCF-7 cells (FIG. 1A)) was 40%. In the experiment with MCF-7 cells [5] (100 nM RA, day 7, MCF-7 cells (FIG. 1A)), the “final plating efficiency, normalized to untreated control” value is on record as “about 10%”. In addition, the “plating efficiency at varying concentrations of RA” value in the experiment on MCF-7 cells [5] (40 hr treatment, indicated doses, lowest 10 nM, MCF-7 cells (FIG. 1B)) is on record as “dose-dependent reduction in plating efficiency at all tested doses (as low as 10 nM)”.
On to `CC1=C(/C=C/C(C)=C/C=C/C(C)=C/C(=O)Nc2ccc(O)cc2)C(C)(C)CCC1` [fenretinide, 4-hydroxyphenylretinamide], for which, in experiment [6], the “induction of senescence-associated marker SA-β-gal” value was “Induction of SA-β-gal was also observed”. Further, in the experiment on MCF-7 cells [3] (1 μM fenretinide, MCF-7 cells (FIG. 2C)), the “induction of the 13 genes” value is on record as “All 13 genes were also induced”.
